Experimental data published in patent US20240270673A1, “PROCESS AND SYSTEM FOR THE RECOVERY OF GLYOXYLIC ACID” (Avantium Knowledge Centre B.V., priority 2021, published 2024).

Assay: Low-temperature crystallization of oxalic acid from aqueous glyoxylic acid/oxalic acid solutions (Crystal16 parallel crystallizer), liquid phase concentration after equilibration
Assay type: physicochemical
Details: liquid phase after equilibration over night
Excerpt: Low-temperature crystallization experiments have been carried out on a series of solutions containing glyoxylic acid and oxalic acid at different concentrations.
Solutions containing glyoxylic acid and oxalic acid at different concentrations have been prepared and were cooled under controlled conditions in a Crystal16™ parallel crystallizer (Technobis Crystallization Systems). After reaching the set temperature the mixture as left to equilibrate over night after which a sample of the liquid phase was taken to determine the concentration of oxalic acid and glyoxylic acid after crystallization.

[1] = Entry 1, T setpoint 10 degree Celsius, at RT glyoxylic 150.4 gr/L, oxalic 58.8 gr/L
[2] = Entry 2, T setpoint 5 degree Celsius, at RT glyoxylic 150.4 gr/L, oxalic 58.8 gr/L
[3] = Entry 3, T setpoint 0 degree Celsius, at RT glyoxylic 150.4 gr/L, oxalic 58.8 gr/L
[4] = Entry 4, T setpoint −5 degree Celsius, at RT glyoxylic 150.4 gr/L, oxalic 58.8 gr/L
[5] = Entry 5, T setpoint 10 degree Celsius, at RT glyoxylic 310.6 gr/L, oxalic 44.1 gr/L
[6] = Entry 6, T setpoint 5 degree Celsius, at RT glyoxylic 310.6 gr/L, oxalic 44.1 gr/L
[7] = Entry 7, T setpoint 0 degree Celsius, at RT glyoxylic 310.6 gr/L, oxalic 44.1 gr/L
[8] = Entry 8, T setpoint −5 degree Celsius, at RT glyoxylic 566.8 gr/L, oxalic 29.5 gr/L

For `O=C(O)C(=O)O` [oxalic acid], the “Oxalic concentration at setpoint” value [1] was 36.3 gr/L, the “Oxalic concentration at setpoint” value [2] was 32.70 gr/L and the “Oxalic concentration at setpoint” value [3] was 27.04 gr/L. The “Oxalic concentration at setpoint” value [4] was 22.37 gr/L, the “Oxalic concentration at setpoint” value [5] was 29.07 gr/L and the “Oxalic concentration at setpoint” value [6] was 21.83 gr/L. The “Oxalic concentration at setpoint” value [7] was 19.25 gr/L and the “Oxalic concentration at setpoint” value [8] was 9.57 gr/L.
For `O=CC(=O)O` [glyoxylic acid, Glyoxylic acid], the “Glyoxylic concentration at setpoint” value [1] was 156.1 gr/L, the “Glyoxylic concentration at setpoint” value [2] was 160.62 gr/L and the “Glyoxylic concentration at setpoint” value [3] was 157.73 gr/L. For the same molecule, the “Glyoxylic concentration at setpoint” value [4] was 161.70 gr/L, the “Glyoxylic concentration at setpoint” value [5] was 326.42 gr/L and the “Glyoxylic concentration at setpoint” value [6] was 323.65 gr/L. The “Glyoxylic concentration at setpoint” value [7] was 332.54 gr/L and the “Glyoxylic concentration at setpoint” value [8] was 573.48 gr/L.
